One assay has as its system HepG2. Put plainly: MTT proliferation assay, HepG2. Type of assay: cell-based, human. As to conditions: Homo sapiens; Liver, HepG2, 120 h of exposure. The protocol: (§1) The human hepatocellular carcinoma lines HepG2 (HB-8065), SK-HEP-1 (HTB-52) and the normal human lung fibroblast line IMR-90 (CCL-186) were cultured in Minimum Essential Eagles Medium containing 2 mM L-glutamine, 2.2 g/L sodium bicarbonate, supplemented with 1 mM sodium pyruvate and 0.1 mM non-essential amino acids. The human hepatocellular carcinoma line JHH-1 (JCRB1062) was cultured in Williams E Medium (Invitrogen) containing 2.2 g/L sodium bicarbonate, supplemented with 2 mM L-glutamine. The hepatocellular carcinoma line HuH-7 (JCRB0403) was cultured in DMEM, supplemented with 2 mM L-glutamine.
(§2) Proliferation Assays. IC50 values were determined for each cell line. Cells were seeded in 96-well plates at an appropriate cell density as determined from growth kinetics analysis and cultured for 5 days in the absence and presence of the test compounds. Cell proliferation was assessed after the addition of 20 μl of 3-4,5 dimethylthiazol-2,5-diphenyl tetrazolium bromide (MTT, 5 mg/ml in PBS, Sigma) for 5 hrs at 37° C. according to manufacturer's instructions. IC50 values were calculated from semi-log plots of % of control proliferation on the y-axis against log dose on the x-axis.
(§3) Anti-proliferative Activity of Isoflavonoid Derivatives. IC50 values were determined for each cell line after 120 h of exposure.
For orientation: Tetrazolium assays rely on reduction of a dye to a coloured formazan, in cell work by metabolically active cells.

The next assay has as its system A549. Put plainly: MTT proliferation assay, A549. The class given is cell-based. The following applies: Homo sapiens; NSCLC, A549, 120 h of exposure. On the procedure:
as §2, §3

The next assay relates to MM200. Put plainly: MTT proliferation assay, MM200. Type of assay: cell-based. As to conditions: Melanoma, MM200, 120 h of exposure. On the procedure:
as §2, §3

In a further assay the test system is DU145. Kind of assay: MTT proliferation assay, DU145. Type of assay: cell-based. The following applies: Homo sapiens, DU-145; Prostate, DU145, 120 h of exposure. The protocol:
as §2, §3

A further assay deals with NCI-H460. Put plainly: MTT proliferation assay, NCI-H460. The following applies: Homo sapiens; NSCLC, NCI-H460, 120 h of exposure. The class given is cell-based, human. The protocol:
The human non-small cell lung adenocarcinoma lines NCI-H1299 (CRL-5803), NCI-H460 (HTB-177), NCI-H358 (CRL-5807), NCI-H838 (CRL-5844), the human colorectal adenocarcinoma lines COLO 205 (CCL-222), HCT-15 (CCL-225) and the human gastric cancer cell line NCI-N87 (CRL-5822) were cultured in RPMI 1640 medium containing 2 g/L sodium bicarbonate (Hyclone/Invitrogen) supplemented with 2 mM L-glutamine (Gibco) 1 mM sodium pyruvate (Sigma), 10 mM HEPES (Sigma) and 4500 mg/L glucose (Sigma). The human non-small cell lung adenocarcinoma line NCI-H2126 (CCL-256) was cultured in DMEM:F12(1:1) (Hyclone/Invitrogen) containing 2.5 mM L-glutamine 2.4 g/L sodium bicarbonate supplemented with 5% fetal bovine serum (FBS), an additional 2 mM L-glutamine, 15 mM HEPES, 0.005 mg/ml insulin (Sigma), 0.01 mg/ml transferrin (Sigma), 30 nM sodium selenite (Sigma), 10 nM hydrocortisone (Sigma) and 10 nM beta-estradiol (Sigma). The human colorectal adenocarcinoma line HT-29 (HTB-38) and the human gastric cancer cell lines OE-19 (#96071721) and MKN1 (JCRB0252) were cultured in RPMI 1640 media supplemented with 2 mM L-glutamine.
as §2, §3

The next assay has as its system PC3. Put plainly: MTT proliferation assay, PC3. The class given is cell-based. In outline:
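Cells cultured 5 days (120 h) with or without test compounds, then MTT added for 5 hrs at 37° C. IC50 derived from semi-log plots of % control proliferation against log dose.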

For another assay, the system named is SK-Hep-1. Put plainly: MTT proliferation assay, SK-Hep-1. The following applies: Homo sapiens, SK-HEP1; Liver, SK-Hep-1, 120 h of exposure. Type of assay: cell-based, human. On the procedure: as §1, §2, §3
A further assay relates to 4405. Put plainly: MTT proliferation assay, 4405. Type of assay: cell-based. As to conditions: Melanoma, 4405, 120 h of exposure. The protocol: as §2, §3

As a reminder, the IC50 is the concentration that inhibits the measured activity by half. A low value points to greater potency in that assay. `Oc1ccc([C@H]2c3ccc(O)cc3OC[C@H]2c2ccc(O)cc2)cc1` [Compound 31, d-cis-3-(4-hydroxyphenyl)-4-(4-hydroxyphenyl)chroman-7-ol]: the half-inhibitory concentration (IC50) with HepG2 was 150 to 500 nM; in the assay on A549, 510 to 1500 nM; in the assay with MM200, 510 to 1500 nM; with DU145, 150 to 500 nM; with NCI-H460, 510 to 1500 nM; in the assay on PC3 (Homo sapiens, PC-3, 120 h, Prostate, PC3, 120 h of exposure), 150 to 500 nM. The 50% inhibitory concentration (IC50) is 150 to 500 nM with PC3 (Table 2, Prostate, PC3, 120 hrs of exposure); 150 to 500 nM in the assay on SK-Hep-1; 150 to 500 nM in the assay with 4405.

Values taken from patent US12329739B2, “Isoflavonoid compounds and methods for the treatment of cancer” (Aardvark Therapeutics, Inc., priority 2010, dated 2025).
